Measured values published in patent US7087648B1, “Methods for modulating macrophage proliferation using polyamine analogs” (The Regents of the University of California, priority 1997, dated 2006).

Columns and labels:
[1] = test system: CD14^+/PCNA^+ peripheral blood macrophage; assay: In vitro CD14/PCNA staining (FACSCAN) of PBMC from AIDS dementia patients cultured five days with agent; type: cell-based, human; details: for effect on macrophage proliferation: blood of one patient with AIDS dementia, Table 2; for CD14^+, PCNA^+ / TOTAL CD14/PCNA: one patient with AIDS dementia; for CD14^+, PCNA^+: 0 drug: 64/5000; for TOTAL CD14/PCNA: 0 drug: 388; for inhibition and/or killing of blood PCNA^+/CD14^+ cells: summary of the data shown; for CD14^+/PCNA^+ / CD14^+/PCNA^− / total CD14: HIV dementia patient five; for CD14^+/PCNA^+: 0 drug: 74; for CD14^+/PCNA^−: 0 drug: 472; for total CD14: 0 drug: 546
Description: We had previously separated peripheral blood monocytes on Ficoll. […] We then used Percoll gradient separation, which allows for denser cells to be captured. A two-step gradient was prepared in 15 mL conical tubes: bottom layer of 1.087 density Percoll, overlaid with 1.077 density. 1.5 mL whole heparinised blood was mixed with an equal volume of isotonic saline. This blood/saline was layered over the gradient and centrifuged. Cells from the 1.077 and 1.087 interfaces were collected, combined, and washed in 5 volumes of RPMI 1640. […] All further experiments were performed using 1.087 gradient.
Five×10^5 PBMC's isolated through a 1.087 g/cc Percoll/saline gradient were exposed to varied concentrations of agent after baseline CD14/PCNA staining was performed. The cells were cultured at 5×10^5 cells in RPM1-1640/10% fetal calf serum in a polypropylene tube (Falcon) at 37° C. for five days. After five days CD14/PCNA staining was performed on control and agent-treated cultures. FACSCAN analysis of PCNA-positive cells in control cultures was compared with agent-treated cultures and the percentage of control PCNA/CD14 cells was calculated. The results of such an experiment in which the effect of polyamine analog DEHOP (SunPharm; Florida) on proliferating macrophages (as detected by PCNA) from the blood of four patients with AIDS dementia are shown in FIG. 1A (with underlying data provided in Table 3). […] A comparison of the inhibitory effect of DEHOP and cyclosphosphamide, another anti-proliferative agent, was performed in vitro using the blood of one of these patients (“CB”).

[2] = test system: CD14^+/PCNA^+ peripheral blood macrophage; assay: as above; type: cell-based, human; details: one patient with AIDS dementia, 0 drug: 35/5000
PCNA^+ macrophage = assay: Inhibition of PCNA^+ macrophage detection, peripheral blood of HIV^+ sarcoid patient; type: cell-based, human; details: 60% of input CD14 cells PCNA^+, 96 hr after drug exposure and culture, FIG. 5
Description: Five×10^5 PBMC's isolated through a 1.087 g/cc Percoll/saline gradient were exposed to varied concentrations of agent after baseline CD14/PCNA staining was performed. […] FACSCAN analysis of PCNA-positive cells in control cultures was compared with agent-treated cultures and the percentage of control PCNA/CD14 cells was calculated.

[3] = test system: human brain tumor cell lines; details: cited from earlier work
[4] = test system: rat aortic smooth muscle cells; details: in culture for 8 to 15 days; cited from earlier work
PCNA/CD14 cells = assay: PCNA expression of peripheral macrophages (CD14 cells) from patients with AD, five days culture with agent; type: cell-based, human; details: FIG. 3
Description: We had previously separated peripheral blood monocytes on Ficoll. […] We then used Percoll gradient separation, which allows for denser cells to be captured. A two-step gradient was prepared in 15 mL conical tubes: bottom layer of 1.087 density Percoll, overlaid with 1.077 density. 1.5 mL whole heparinised blood was mixed with an equal volume of isotonic saline. This blood/saline was layered over the gradient and centrifuged. Cells from the 1.077 and 1.087 interfaces were collected combined, and washed in 5 volumes of RPMI 1640.
Five×10^5 PBMC's isolated through a 1.087 g/cc Percoll/saline gradient were exposed to varied concentrations of agent after baseline CD14/PCNA staining was performed as described in Example 3. The cells were cultured at 5×1O^5 cells in RPM1-1640/10% fetal calf serum in a polypropylene tube (Falcon) at 37° C. for five days. After five days CDI 14/PCNA staining was performed on control and agent-treated cultures. FACSCAN analysis of PCNA-positive cells in control cultures was compared with agent-treated cultures and percentage of control PCNA/CD14 cells was calculated. Two polyamine analogs, DENOP (SunPharm; Florida) and SL-11037 were tested.

[5] = test system: spermidine-spermine N1-acetyltransferase (SSAT); details: human melanoma cells; cited from earlier work
spermine synthetase = details: competing with putrescine; cited from earlier work
spermine synthase = molecular target: T1, spermine synthase (Homo sapiens, UniProt P52788); details: competing with spermidine; cited from earlier work
T1 sequence (P52788 1-366): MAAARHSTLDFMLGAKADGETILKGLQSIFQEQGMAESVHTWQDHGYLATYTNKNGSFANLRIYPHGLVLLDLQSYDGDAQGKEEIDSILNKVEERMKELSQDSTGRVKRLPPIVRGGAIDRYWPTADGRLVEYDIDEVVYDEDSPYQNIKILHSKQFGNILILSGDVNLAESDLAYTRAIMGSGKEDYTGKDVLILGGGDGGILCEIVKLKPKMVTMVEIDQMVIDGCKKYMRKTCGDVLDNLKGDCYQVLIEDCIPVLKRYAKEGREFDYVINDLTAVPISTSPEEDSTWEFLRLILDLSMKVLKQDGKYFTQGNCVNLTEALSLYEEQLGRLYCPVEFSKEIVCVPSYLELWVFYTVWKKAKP

[6] = molecular target: T2, S-adenosylmethionine decarboxylase (Homo sapiens, UniProt P17707); details: competing with S-adenosylmethionine; cited from earlier work
T2 sequence (P17707 68-334 limits assumed): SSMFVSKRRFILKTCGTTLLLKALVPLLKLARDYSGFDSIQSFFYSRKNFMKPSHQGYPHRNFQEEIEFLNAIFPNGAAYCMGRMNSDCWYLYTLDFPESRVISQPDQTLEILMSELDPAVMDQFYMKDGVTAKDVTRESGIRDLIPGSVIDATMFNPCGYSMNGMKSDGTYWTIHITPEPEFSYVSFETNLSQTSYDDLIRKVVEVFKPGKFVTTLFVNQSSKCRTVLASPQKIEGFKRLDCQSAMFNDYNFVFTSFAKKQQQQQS
T2 sequence (P17707 1-67 limits assumed): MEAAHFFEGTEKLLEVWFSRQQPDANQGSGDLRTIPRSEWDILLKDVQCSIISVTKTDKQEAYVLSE

P388 leukemia = details: mice bearing P388 leukemia; cited from earlier work
leukemic ascites cells = details: cited from earlier work

Structure (SMILES): CCNCCCNC[C@@H]1CC[C@H]1CNCCCNCC.Cl.Cl.Cl.Cl (relative stereo) [SL-11038, N-ethyl-N′-(2-(3′-ethylamino-propylaminomethyl)-trans-cyclobutylmethyl)-propane 1; 3-diamine tetrahydrochloride]
- effect on macrophage proliferation [1]: showed inhibitory effects
- CD14^+, PCNA^+ ([1]; 2 μM): 104/ NO. OF CELLS/5,000
- TOTAL CD14/PCNA ([1]; 2 μM): 356 NO. OF CELLS/5,000
- CD14^+, PCNA^+ ([1]; 10 μM): 36/ NO. OF CELLS/5,000
- TOTAL CD14/PCNA ([1]; 10 μM): 205 NO. OF CELLS/5,000
- CD14^+, PCNA^+ ([1]; 50 μM): 24/ NO. OF CELLS/5,000
- TOTAL CD14/PCNA ([1]; 50 μM): 104 NO. OF CELLS/5,000
- inhibition and/or killing of blood PCNA^+/CD14^+ cells [1]: potent inhibition and/or killing
- CD14^+, CD69^+ ([2]; 2 μM): 32/ NO. OF CELLS/5,000
- CD14^+, CD69^+ ([2]; 10 μM): 32/ NO. OF CELLS/5,000
- CD14^+, CD69^+ ([2]; 50 μM): 26/ NO. OF CELLS/5,000

Structure (SMILES): CCNCCCNC[C@@H]1C[C@H]1CNCCCNCC.Cl.Cl.Cl.Cl (relative stereo) [SL-11044, N-ethyl-N′-(2-(3′-ethylamino-propylaminomethyl)-trans-cyclopropylmethyl)-propane 1,3-diamine tetrahydrochloride]
- inhibition and/or killing of blood PCNA^+/CD14^+ cells [1]: potent inhibition and/or killing
- inhibition of PCNA^+ macrophage detection (PCNA^+ macrophage): potent inhibitors

Structure (SMILES): CCNCCCCNCCCCNCCCCNCCCCNCC [BE-4444, 1,19-bis(ethylamino)-5,10,15-triazanonadecane]
- growth, survival, and cell cycle progression [3]: directly affects growth, survival, and cell cycle progression
- killing of PCNA^+/CD14^+ cells ([1]; FIG. 1B): potent killing
- inhibition and/or killing of blood PCNA^+/CD14^+ cells [1]: potent inhibition and/or killing

Structure (SMILES): CCNCCCNCCCNCCCNCC [Bis-ethyl norspermine, 1,11 -bis(ethyl)norspermine]
- cell growth [4]: inhibit the growth

Structure (SMILES): O=P1(N(CCCl)CCCl)NCCCO1 (stereo not drawn) [Cyclophosphamide, reference compound]
- CD14^+/PCNA^+ ([1]; 5 μg/ml): 70 #cells/10,000 PBMC
- CD14^+/PCNA^− ([1]; 5 μg/ml): 272 #cells/10,000 PBMC
- total CD14 ([1]; 5 μg/ml): 342 #cells/10,000 PBMC
- CD14^+/PCNA^+ ([1]; 0.005 (μg/ml)): 71 #cells/10,000 PBMC
- CD14^+/PCNA^− ([1]; 0.005 (μg/ml)): 295 #cells/10,000 PBMC
- total CD14 ([1]; 0.005 (μg/ml)): 366 #cells/10,000 PBMC
- CD14^+/PCNA^+ ([1]; 0.05 (μg/ml)): 99 #cells/10,000 PBMC
- CD14^+/PCNA^− ([1]; 0.05 (μg/ml)): 455 #cells/10,000 PBMC
- total CD14 ([1]; 0.05 (μg/ml)): 554 #cells/10,000 PBMC
- CD14^+/PCNA^+ ([1]; 0.5 (μg/ml)): 49 #cells/10,000 PBMC
- CD14^+/PCNA^− ([1]; 0.5 (μg/ml)): 390 #cells/10,000 PBMC
- total CD14 ([1]; 0.5 (μg/ml)): 439 #cells/10,000 PBMC
- in vitro toxicity in this assay system ([1]; blood of patient five): lack of in vitro toxicity

Structure (SMILES): CCNCCCNCCCNCCCNCC [DENOP, diethyl-norspermine]
- percentage of proliferating macrophages (PCNA/CD14 cells) (PCNA/CD14 cells): significantly reduced the percentage of proliferating macrophages
- effect on macrophage proliferation [1]: showed inhibitory effects
- CD14^+, PCNA^+ ([1]; 2 μM): 34/ NO. OF CELLS/5,000
- TOTAL CD14/PCNA ([1]; 2 μM): 149 NO. OF CELLS/5,000
- CD14^+, PCNA^+ ([1]; 10 μM): 23/ NO. OF CELLS/5,000
- TOTAL CD14/PCNA ([1]; 10 μM): 50 NO. OF CELLS/5,000
- CD14^+, PCNA^+ ([1]; 50 μM): 19/ NO. OF CELLS/5,000
- TOTAL CD14/PCNA ([1]; 50 μM): 43 NO. OF CELLS/5,000
- inhibition and/or killing of blood PCNA^+/CD14^+ cells [1]: potent inhibition and/or killing
- CD14^+, CD69^+ ([2]; 2 μM): 32/ NO. OF CELLS/5,000
- CD14^+, CD69^+ ([2]; 10 μM): 23/ NO. OF CELLS/5,000
- CD14^+, CD69^+ ([2]; 50 μM): 32/ NO. OF CELLS/5,000

Structure (SMILES): CCNCCCNCCCNCCCNCC [DENSPM, 1,1 1-diethylnorspermine]
- increase in immunodetectable SSAT protein [5]: 300 fold
- increase of SSAT mRNA levels [5]: up to 20 fold

Structure (SMILES): CC(C=NNC(=N)NC1CCCC1)=NNC(=N)NC1CCCC1 [MGBCP, methylglyoxal-bis(cyclopentylamidinohydrazone)]
- inhibition of spermine synthetase (spermine synthetase): inhibited
- inhibition of spermine synthase (spermine synthase): inhibited
- inhibition of S-adenosylmethionine decarboxylase [6]: inhibited
- survival time (P388 leukemia): prolonged survival time
- spermidine and spermine in cells (leukemic ascites cells): depleted

Structure (SMILES): CCNCCCNC[C@@H]1C[C@@H]1CNCCCNCC.Cl.Cl.Cl.Cl [SL-11037, N-ethyl-N′-(2-(3′-ethylamino-propylaminomethyl)-cis-cyclopropylmethyl)-propane 1,3-diamine tetrahydrochloride]
- percentage of proliferating macrophages (PCNA/CD14 cells) (PCNA/CD14 cells): significantly reduced the percentage of proliferating macrophages
- effect on macrophage proliferation [1]: showed inhibitory effects
- CD14^+, PCNA^+ ([1]; 2 μM): 49/ NO. OF CELLS/5,000
- TOTAL CD14/PCNA ([1]; 2 μM): 276 NO. OF CELLS/5,000
- CD14^+, PCNA^+ ([1]; 10 μM): 32/ NO. OF CELLS/5,000
- TOTAL CD14/PCNA ([1]; 10 μM): 116 NO. OF CELLS/5,000
- CD14^+, PCNA^+ ([1]; 50 μM): 11/ NO. OF CELLS/5,000
- TOTAL CD14/PCNA ([1]; 50 μM): 79 NO. OF CELLS/5,000
- inhibition and/or killing of blood PCNA^+/CD14^+ cells [1]: potent inhibition and/or killing
- CD14^+, CD69^+ ([2]; 2 μM): 46/ NO. OF CELLS/5,000
- CD14^+, CD69^+ ([2]; 10 μM): 49/ NO. OF CELLS/5,000
- CD14^+, CD69^+ ([2]; 50 μM): 33/ NO. OF CELLS/5,000

Structure (SMILES): CCNCCCNC/C=C\CNCCCNCC.Cl.Cl.Cl.Cl [SL-11047, N,N′-bis(3-ethylaminopropyl)-cis-but-2-ene-1,4-diamine tetrahydrochloride]
- PCNA^+/CD14 cell survival ([1]; FIG. 6, averages of several (N) experiments): decrease
- inhibition and/or killing of blood PCNA^+/CD14^+ cells [1]: potent inhibition and/or killing
- inhibition of PCNA^+ macrophage detection (PCNA^+ macrophage): potent inhibitors

Structure (SMILES): NCCCNCCCCNCCCN [spermine]
- increase in immunodetectable SSAT protein [5]: ~7 fold
- increase of SSAT mRNA levels [5]: ~3 fold
